Results as given in article PMC6321166, “Screening of a Library of Oligosaccharides Targeting Lectin LecB of Pseudomonas Aeruginosa and Synthesis of High Affinity Oligoglycoclusters” (Molecules, 2018).

Legend:
LecB = LecB (Pseudomonas aeruginosa, UniProt Q9HYN5); conditions: cited from earlier work
LecB from PA14 = molecular target: LecB from PA14; parameters: method as in PMID 30155149; conditions: read-out: dissociation constant (Kd); cited from earlier work
LecB from PAO1 = conditions: read-out: dissociation constant (Kd); cited from earlier work
LecB from PA7 = molecular target: LecB from PA7; parameters: method as in PMID 27303392; conditions: read-out: dissociation constant (Kd); cited from earlier work
LecB (PAO1) = molecular target: T1, LecB (PAO1) (Pseudomonas aeruginosa, UniProt Q9HYN5); test: Competitive assay on microarray: glycans in solution compete with immobilized fucocluster F1 for Alexa 647-LecB; format: binding; parameters: key: A Grade A was given for oligosaccharides that were able to reduce 80 to 40% of the fluorescent signal at a concentration of 0.1 µM and to reduce it by more than 90% at concentrations of 1, 5 and 15 µM; Grade B indicated a decrease of fluorescence by 70% to 90% at 1 µM and more than 90% at 5 and 15 µM; Grade C corresponded to a decrease of 50 to 70% for 1 µM, around 80% for 5 µM and more than 90% at 15 µM; D indicated a decrease of less than 50% for 1 µM and 80% at 5 and 15 µM; When no inhibition was observed for the four concentrations tested, the grade was E; conditions: glycan at 0.1, 1.0, 5.0 and 15 µM, Alexa 647-LecB 0.12 µM
T1 construct: purchased Elicityl
T1 sequence (Q9HYN5 entry or part of it): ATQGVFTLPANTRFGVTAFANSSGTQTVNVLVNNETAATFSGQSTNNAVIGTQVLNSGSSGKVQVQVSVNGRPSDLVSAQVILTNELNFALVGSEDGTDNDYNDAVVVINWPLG
Procedure: F1 was immobilized on a DNA chip, thanks to its DNA sequence. The distance between two F1 on the surface was estimated to be nearly 50 nm. Therefore, the lectin LecB can only bind to one F1 glycocluster at the time. The binding of immobilized F1 to LecB was competed with each of the 156 glycans at four different concentrations (0.1, 1.0, 5.0 and 15 µM). For each glycan and each concentration, the alexa 647-LecB fluorescent signal was recorded and averaged over 16 spots, leading to four-point competition histograms (Figure 2 and Figure S2). 100% signal (see Figure 2) corresponded to the fluorescent signal measured with a reference assay under which no competition could occur. Glycans able to compete with F1 to bind LecB lead to a decrease of the fluorescent signal. Therefore, for a given glycan concentration, strong binding glycans lead to stronger decrease of the fluorescent signal so to lower percentages. Accordingly, tested glycans were classified qualitatively into 5 groups (A, B, C, D and E) depending to their ability to reduce the measured fluorescent signal at the four different concentrations (Figure 2 and Table 1). Grade A are stronger competitor than grade B which are stronger than grade C, and so on. A Grade A was given for oligosaccharides that were able to reduce 80 to 40% of the fluorescent signal at a concentration of 0.1 µM and to reduce it by more than 90% at concentrations of 1, 5 and 15 µM. Grade B indicated a decrease of fluorescence by 70% to 90% at 1 µM and more than 90% at 5 and 15 µM. Grade C corresponded to a decrease of 50 to 70% for 1 µM, around 80% for 5 µM and more than 90% at 15 µM. D indicated a decrease of less than 50% for 1 µM and 80% at 5 and 15 µM.
Cy3-oligonucleotide oligoglycoclusters F1 [46] […] In each microwell, 1.5 µL of the oligoglycocluster mixture was incubated for DNA-directed immobilization (DDI) for 3 h at 37 °C in a water-saturated atmosphere. The slides were washed with saline sodium citrate (SSC) 2× SDS 0.1% at 51 °C for 1 min, SSC 2× for 5 min and rinsed with water.
A library of 156 sugars extracted from biomass or produced by bacterial fermentation (see Supporting Information) issued from the OligoTech® (Elicityl) was screened in a competitive assay. The binding of the 156 carbohydrates was screened toward the lectin LecB (PAO1, Elicityl). Lectin was labeled as previously described using the Alexa Fluor® 647 Microscale Protein Labelling Kit (Invitrogen).
On each slide, nine oligosaccharides and α-L-fucose (as a control) were tested. The inhibitory effect of each oligosaccharide was determined at four concentrations 0.1, 1.0, 5.0 and 15 µM and at 0.5, 2.5, 5.0 and 7.5 mg/L for polymers: Aliginate, galacturonan, galactomannan, glucomannan, mannan, ulvan, xylan and the glucan. To this end, the labeled LecB lectin (0.12 µM final concentration), BSA (2%, final concentration), CaCl2 (7.5 µM, final concentration) in PBS 1× (pH 7.4) were mixed with the solutions of oligosaccharides (from the OligoTech®, Crolles, France). For each concentration, 1.5 µL of the mixture was poured into a microwell, where F1 was previously immobilized. The slides were incubated for 3 h at 37 °C in a water-saturated atmosphere. In each microwell, a competition between the two types of glycoclusters (F1) and oligosaccharide occurred to bind LecB. The microarrays were washed with 0.02% PBS-Tween20 for 5 min at room temperature. The fluorescence signal emitted by the complex glycocluster/Alexa 647-lectin was detected and an average of the mean fluorescence signal of 16 spots per glycocluster was calculated. The percentage of inhibition was calculated as follows: The alexa-647 fluorescent signal for a given sugar was normalized by the Alexa 647 fluorescent signal measured at 0.1 µM of fucose.

Sequence of LecB (Q9HYN5 entry or part of it): as above

Compound	Grade (ability to reduce the F1/LecB fluorescent signal) (LecB (PAO1))	further results
O=C[C@H](O)[C@@H](O)[C@@H](O)[C@H](O)CO [D-galactose]		recognition by LecB (LecB): not recognized
OC[C@H]1OC(O)[C@@H](O)[C@@H](O)[C@@H]1O (stereo partly drawn) [D-mannose]		interaction with LecB, times weaker than L-fucose (LecB): 25 times
CO[C@@H]1O[C@@H](C)[C@@H](O)[C@@H](O)[C@@H]1O [FucOMe]		Kd (LecB from PA14): 0.2 µM; Kd (LecB from PAO1): 0.43 µM; Kd (LecB from PA7): 2.2 µM
CC(=O)N[C@H]1[C@H](O[C@H]2[C@@H](O)[C@@H](CO)OC(O)[C@@H]2O)O[C@H](CO)[C@@H](O[C@@H]2O[C@H](CO)[C@H](O)[C@H](O)[C@H]2O)[C@@H]1O[C@@H]1O[C@@H](C)[C@@H](O)[C@@H](O)[C@@H]1O (stereo partly shown) [Id. 26, Galβ1-4(Fucα1-3)GlcNAcβ1-3Gal]	C (Grade C corresponded to a decrease of 50 to 70% for 1 µM, around 80% for 5 µM and more than 90% at 15 µM)	
CC(=O)N[C@H]1[C@H](O[C@H]2[C@@H](O)[C@@H](CO)OC(O)[C@@H]2O)O[C@H](CO)[C@@H](O[C@@H]2O[C@@H](C)[C@@H](O)[C@@H](O)[C@@H]2O)[C@@H]1O[C@@H]1O[C@H](CO)[C@H](O)[C@H](O)[C@H]1O (stereo partly shown) [Id. 30, Galβ1-3(Fucα1-4)GlcNAcβ1-3Gal]	A (A Grade A was given for oligosaccharides that were able to reduce 80 to 40% of the fluorescent signal at a concentration of 0.1 µM and to reduce it by more than 90% at concentrations of 1, 5 and 15 µM)	
Nc1ccc(S(N)(=O)=O)cc1 [sulfonamide]		Kd (LecB; inhibitors of LecB): 3.3 µM
Fucα1-2Galβ1-3(Fucα1-4)GlcNAcβ1-3Gal [Id. 32]	C (Grade C corresponded to a decrease of 50 to 70% for 1 µM, around 80% for 5 µM and more than 90% at 15 µM)	
GalNAcα1-3(Fucα1-2)Gal [Id. 15]	D (D indicated a decrease of less than 50% for 1 µM and 80% at 5 and 15 µM)	
Galα1-3(Galβ1-4GlcNAcβ1-3)2Galβ1-4Glc [Id. 45]	E	
Galβ1-4(Fucα1-3)Glc [Id. 33]	B (Grade B indicated a decrease of fluorescence by 70% to 90% at 1 µM and more than 90% at 5 and 15 µM)	
Neu5Acα2-3Galβ1-4(Fucα1-3)GlcNAcβ1-3Gal [Id. 29]	C (Grade C corresponded to a decrease of 50 to 70% for 1 µM, around 80% for 5 µM and more than 90% at 15 µM)	
